Results reported in EP0423240B1, “MODULATION OF VIRUS-HOST CELL INTERACTIONS USING CYCLIC OLIGOSACCHARIDES” (THE TRUSTEES OF THE UNIVERSITY OF PENNSYLVANIA, priority 1988, dated 1990).

Key:
HIV-1 [1] = assay: Reverse transcriptase levels of cells already infected with HIV-1; format: cell-based; details: reverse transcriptase activity, virus particle production, virus particle morphology
Experimental: Virus infected cells were pelleted by centrifugation and 50 µl of culture suprenatant was collected from each well for assay. Culture supernatant (25 µl) was plated in 96 well round bottomed plates and 50 µl of transcriptase cocktail was added to each well. Cocktail is 50 mM Tris-HC1, pH 8.0, 20 mM DTT, 0.6 mM MnC1₂, 60 mM NaC1, 0.05% NP-40, 5 µg/ml dt (oligodeoxythymidilic acid), 10 µg/ml poly A (polyriboadenylic acid), 10 µM dTTP, 1 Ci/mm ³²P dTTP. Plates were then incubated for 60 minutes at 37°C. After incubation samples were spotted onto Whatman DEAE-81 paper, washed and analyzed by counting or direct autoradiography.
In order to determine the specific sites of viral pathogenesis interrupted by the cyclodextrin compounds, we assayed the ability of the cyclodextrins treatment to effect reverse transcriptase levels of cells already infected with HIV-1. In contrast to the results observed when virus was added to uninfected cells, (see supra, Section 6.2.1.) no significant inhibition of reverse transcriptase was observed.

HIV-1 [2] = assay: Viral RNA analysis by dot blot; format: cell-based; details: 1 mM
Experimental: Virus particles were incubated with target cells in the presence or absence of […] of β-CD-14S. At 72 hours post infection, the cells were washed and dot blot assays were performed to determine the presence or absence of viral RNA production. In (A), target cells were infected in the presence of sulfated β-cyclodextrin (lane A), in the absence of cyclodextrins (lane B), or in the presence of unsubstituted β-cyclodextrin (lane C). 1/2 dilutions of cells are from left to right starting with 10⁶ cell/well utilized. In (B), virally infected cells (+) or uninfected cells (-) were assayed for their ability to produce viral RNA by dot blot analysis. CD = infected cells incubated with 1 mM of β-CD-14S. 1/2 dilutions of cells are from top to bottom starting with 10⁶ cell/well.
Virus treated cells were grown in tissue culture and harvested for assay at 72 hrs. post-infection. The cell concentrations were then adjusted to 1 x 10⁶ cells/m1 with phosphate buffered saline and spotted directly onto prewetted gene screen utilizing a dot blot apparatus. The filter was then fixed in 3% NaC1, 10 mM NaH₂PO₄, (pH 7.2) containing 1% gluteraldehyde at 4°C for 1 hr. The fixed blot was then rinsed three times with proteolytic buffer (50mM EDTA, 0.1 M Tris-HC1 (pH 8.0), 20 µg/ml proteinase K) for 30 minutes at 37°C. The filter was air dried until being probed. A Sall-Xho1 probe derived from the pIIIenv1 plasmid (a generous gift of Dr. J. Sodrofsky) and encoding the envelope region of the HXB2, HIV-1 virus was labeled by the random primer method using standard technology and hybridized to the filter as previously described (Weiner et al., 1986, Cell Immunol. 100:197).
To determine if the cyclodextrins were interfering with steps relevant to viral replication, the ability of these compounds to inhibit viral nucleic acid synthesis was determined. Virus particles were incubated with target cells in the presence or absence of 1 mM of β-CD-14S. At 72 hours post-infection, the cells were washed and dot blot assays were performed to determine the presence or absence of viral RNA production. […]

HIV-1 [3] = assay: HIV-induced syncytia formation over time, comparison with dextran sulfates; format: cell-based; details: during the culture period (48 hours)
Experimental: (§1) Figure 6 compares the effects of dextran polysulfate and substituted β-cyclodextrins on HIV infectivity. In (A) degree of syncytia inhibition is shown on the ordinate for each compound added. SUL = 600 µM β-CD-14S, AL = 600 µM unsubstituted β-CD, Pro = 600 µM propoxylated β-CD, 2MET = 300 µM methoxylated β-CD, DS5 = 600 µM dextran sulfate 5,000, DS500 = 600 µM dextran sulfate 500,000. Results for each of 3 time points are shown. In (B) similar results utilizing reverse transcriptase assays are shown. Infectious virus particles were incubated in the presence of sulfated β-cyclodextrin (lane 1), dextran sulfate 5000 (lane 2) or media (lane 3) for 6 days at which time cells were resuspended in fresh media and allowed to incubate a further 10 days before being harvested. Reverse transcriptase activity was assayed as described in Section 6.1, infra. 1/2 dilutions of the compound added are shown from bottom (highest concentration at 2.5 mM) to top (lowest concentration).
For the assay of HIV-1 fusion, Supt T1 cells were used as target cells. They fuse rapidly when cocultured with HIV-1 (H9/IIIb) producing cell lines. For the assay of HIV-2 mediated cell fusion, H9 cells were used as target cells. […] Target cells are then added 5 x 10⁵/well and the number of syncytia are qualitatively determined after the incubation periods described in the text.

HIV-1 [4] = assay: Structural studies: electron microscopy of virus particle production by infected cells; format: cell-based
Experimental: Virus infected cells were washed and resuspended in fresh media in the presence or absence of test compounds. After a 48 hour culture period the cultures were pelleted and fixed in 1% glutaraldehyde, 0.1 M Cacodylate-HC1, pH 7.3 followed by OsO₄, and embedded in spur resin for examination of these sections by electron microscopy.
To further address this point, we analyzed virus particle production in the presence of specifically substituted cyclodextrins by electron microscopic examination. Virus infected cells were washed and resuspended in fresh media in the presence or absence of test compounds. After a 48 hour culture period, the cultures were pelleted and fixed in 1% glutaraldehyde, 0.1 M Cacodylate-HC1, pH 7.3 followed by OsO₄ and embedded in spur resin for examination of thin sections.

Water solubility at 0°C = format: physicochemical
Experimental: The cyclic oligosaccharide derivatives useful in the present invention are highly hydrophilic and therefore very water soluble. A highly hydrophilic character probably is important to allow interaction with cellular surfaces. The hydrophilic activity is likely roughly indicated by the affinity to water, as measured by water solubility. It is important to measure the same at 0°C since at higher temperatures the most suitable derivative have solubilities so high that meaningful measurements are difficult.

HIV = assay: Reverse transcriptase assay after prolonged culture (6 days with compound, further 10 days in fresh media); format: cell-based; details: then 10 days in fresh media
Experimental: as §1
Virus infected cells were pelleted by centrifugation and 50 µl of culture suprenatant was collected from each well for assay. Culture supernatant (25 µl) was plated in 96 well round bottomed plates and 50 µl of transcriptase cocktail was added to each well. […] After incubation samples were spotted onto Whatman DEAE-81 paper, washed and analyzed by counting or direct autoradiography. […]

**Q.** Which results are given for “beta-cyclodextrin tetradecasulfate [Beta-CD-14S]”?
**A.** effects on cells that have already been infected with HIV-1 (HIV-1 [1]): no detectable effects; ability of infected cells to produce viral RNA (HIV-1 [2]; already infected cells incubated with compound): not inhibited in their ability to produce viral RNA; HIV-1 specific RNA (HIV-1 [2]; target cells infected in the presence of compound, 72 hours post-infection): little or no HIV-1 specific RNA was detected; anti-syncytial activity (HIV-1 [3]): remained unchanged; morphology of viral particles produced (HIV-1 [4]; 300 µM, 48 hour culture): typical of the lentivirus family; morphology of the viral particles produced (HIV-1 [4]; infected H9 cells, 1 mM): mature morphology; Solubility 0°C (Water solubility at 0°C): 42 g/100ml H₂O; anti-viral activity (reverse transcriptase activity) (HIV): significant anti-viral activity even after prolonged periods of tissue culture
